The term IC50 denotes the point on the concentration scale where inhibition reaches its midpoint.

Assay [1] relates to NHE3. The following applies: M. Donowitz et al., Am. J. Physiol. 276; cited from earlier work.
In assay [2] the target is T1, rNHE3 (Rattus norvegicus, UniProt P26433).
T1 construct: expressed in transfected cells; host or cells: LAP1 cells (fibroblasts)
Put plainly: Recovery of intracellular pH after acidification (BCECF fluorescence) in LAP1 fibroblasts. The format is cell-based. As to the method: In this test, the recovery in the intracellular pH (pHi) after an acidification was ascertained, which is initiated if the NHE3 is capable of functioning, even under bicarbonate-free conditions. For this purpose, the pHi was determined using the pH-sensitive fluorescent dye BCECF (Calbiochem, the precursor BCECF-AM is employed). The cells (fibroblasts, LAP1 cells) were initially loaded with BCECF. The BCECF fluorescence was determined in a “Ratio Fluorescence Spectrometer” (Photon Technology International, South Brunswick, N.J., USA) at excitation wavelengths of 505 and 440 nm and an emission wavelength of 535 nm and converted into the pHi using calibration curves. The cells were incubated in NH4Cl buffer (pH 7.4) (NH4Cl buffer: 115 mM NaCl, 20 mM NH4Cl, 5 mM KCl, 1 mM CaCl2, 1 mM MgSO4, 20 mM Hepes, 5 mM glucose, 1 mg/ml BSA; a pH of 7.4 is adjusted with 1 M NaOH) even during the BCECF loading. The intracellular acidification was induced by adding 975 μl of an NH4Cl-free buffer (see below) to 25 μl aliquots of the cells incubated in NH4Cl buffer. The subsequent rate of pH recovery was recorded for three minutes. To calculate the inhibitory potency of the tested substances, the cells were initially investigated in buffers with which a complete or absolutely no pH recovery took place. For complete pH recovery (100%), the cells were incubated in Na^+-containing buffer (133.8 mM NaCl, 4.7 mM KCl, 1.25 mM CaCl2, 1.25 mM MgCl2, 0.97 mM Na2HPO4, 0.23 mM NaH2PO4, 5 mM Hepes, 5 mM glucose, a pH of 7.0 is adjusted with 1 M NaOH). To determine the 0% value, the cells were incubated in an Na^+-free buffer (133.8 mM choline chloride, 4.7 mM KCl, 1.25 mM CaCl2, 1.25 mM MgCl2, 0.97 mM K2HPO4, 0.23 mM KH2PO4, 5 mM Hepes, 5 mM glucose, a pH of 7.0 is adjusted with 1 M KOH). The substances to be tested were made up in the Na^+-containing buffer. The recovery of the intracellular pH at each test concentration of a substance was expressed as a percentage of the maximum recovery. The IC50 value for the particular substance for the individual NHE subtypes was calculated from the pH recovery percentages using the Sigma-Plot program.

Assay [3] deals with imidazoline I1 receptor. The following applies: Ernsberger et al, Eur. J. Pharmacol. 134, 1, 1987; cited from earlier work.
For assay [4] the following is noted: mediated by alpha2 and I1 receptors; Ernsberger et al.; cited from earlier work.
The test system of assay [5] is adrenergic alpha2 receptor. The note with it: Ernsberger et al, Eur. J. Pharmacol. 134, 1, 1987; cited from earlier work.

Structures can show the parent of a compound that is named as a salt.

T1 sequence (P26433 29-831): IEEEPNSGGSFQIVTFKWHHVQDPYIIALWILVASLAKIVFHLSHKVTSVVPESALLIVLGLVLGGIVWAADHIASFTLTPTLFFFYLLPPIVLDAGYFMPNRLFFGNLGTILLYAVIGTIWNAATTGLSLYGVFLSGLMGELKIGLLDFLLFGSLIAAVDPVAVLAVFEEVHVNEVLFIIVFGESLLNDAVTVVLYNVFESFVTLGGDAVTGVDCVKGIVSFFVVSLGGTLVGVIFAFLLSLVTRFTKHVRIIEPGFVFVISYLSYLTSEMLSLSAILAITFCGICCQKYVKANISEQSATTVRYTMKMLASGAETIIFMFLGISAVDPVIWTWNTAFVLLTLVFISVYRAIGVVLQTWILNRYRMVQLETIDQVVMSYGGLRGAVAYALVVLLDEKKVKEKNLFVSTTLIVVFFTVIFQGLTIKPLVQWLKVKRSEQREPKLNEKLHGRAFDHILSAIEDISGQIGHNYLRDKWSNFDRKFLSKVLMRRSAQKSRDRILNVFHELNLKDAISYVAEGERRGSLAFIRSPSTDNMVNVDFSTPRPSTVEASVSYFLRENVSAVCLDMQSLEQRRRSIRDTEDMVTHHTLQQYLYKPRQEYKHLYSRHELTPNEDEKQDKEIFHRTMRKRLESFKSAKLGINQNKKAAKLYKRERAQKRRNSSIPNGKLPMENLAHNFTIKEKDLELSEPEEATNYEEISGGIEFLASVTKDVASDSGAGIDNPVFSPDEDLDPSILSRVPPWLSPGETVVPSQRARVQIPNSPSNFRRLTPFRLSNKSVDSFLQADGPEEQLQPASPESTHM

On to `CC(C)[C@@H](CC[C@@H](C)[C@H]1CC[C@H]2[C@@H]3[C@H](O)C[C@H]4C[C@@H](NCCCNCCCCN)CC[C@]4(C)[C@H]3CC[C@]12C)OS(=O)(=O)O` [Squalamine], for which, in assay [1], the “time to maximum strength of effect as NHE3 inhibitor” value was “only after one hour”.

With `Clc1cccc(Cl)c1N(c1nc2ccccc2[nH]1)C1CCCC1` [Example 6, (1H-Benzoimidazol-2-yl)cyclopentyl(2,6-dichlorophenyl)amine], in assay [2], half-maximal inhibition (IC50) required 8.3 µM. This lies in the single-digit micromolar range. The same measure, in the same setting: next, `CC(C)N(c1nc2ccccc2[nH]1)c1c(Cl)cccc1Cl` [Example 3, (1H-Benzoimidazol-2-yl)(2,6-dichlorophenyl)isopropylamine]: 9.3 µM; `CN(c1nc2cc(F)ccc2[nH]1)c1c(Cl)cccc1Cl` [Example 4, (2,6-Dichlorophenyl)(5-fluoro-1H-benzoimidazol-2-yl)methylamine]: 3.3 µM. Take `Clc1cccc(Cl)c1N=C1NCCN1` [Clonidine]: the “affinity for the imidazoline I1 receptor” value in assay [3] was “high affinity”. The blood pressure-lowering effect result in assay [4] was “strong blood pressure-lowering effect”. Further, the “affinity for the adrenergic alpha2 receptor” value in assay [5] was “high affinity”. Take `C=CCN(c1nc2ccccc2[nH]1)c1c(Cl)cccc1Cl` [Example 5, Allyl(1H-benzoimidazol-2-yl)(2,6-dichlorophenyl)amine]: the IC50 in assay [2] was found to be 1.5 µM.

`CCN(c1nc2ccccc2[nH]1)c1c(Cl)cccc1Cl` [Example 1, (1H-Benzoimidazol-2-yl)(2,6-dichlorophenyl)ethylamine] registered an IC50 in assay [2] of 0.57 µM. `CN(c1nc2ccccc2[nH]1)c1c(Cl)cccc1Cl` [Example 2, (1H-Benzoimidazol-2-yl)(2,6-dichlorophenyl)methylamine hydrochloride] registered an IC50 in assay [2] of 0.53 µM.

These data come from patent US8067614B2, “N-substituted (benzoimidazol-2-yl)phenylamines, processes for their preparation, their use as a medicament or diagnostic aid, and a medicament comprising them” (Sanofi-Aventis Deutschland GmbH, priority 2003, dated 2011).
